Biological target: T1, SIRT1 (Homo sapiens, UniProt Q96EB6)
T1 sequence (Q96EB6 1-747): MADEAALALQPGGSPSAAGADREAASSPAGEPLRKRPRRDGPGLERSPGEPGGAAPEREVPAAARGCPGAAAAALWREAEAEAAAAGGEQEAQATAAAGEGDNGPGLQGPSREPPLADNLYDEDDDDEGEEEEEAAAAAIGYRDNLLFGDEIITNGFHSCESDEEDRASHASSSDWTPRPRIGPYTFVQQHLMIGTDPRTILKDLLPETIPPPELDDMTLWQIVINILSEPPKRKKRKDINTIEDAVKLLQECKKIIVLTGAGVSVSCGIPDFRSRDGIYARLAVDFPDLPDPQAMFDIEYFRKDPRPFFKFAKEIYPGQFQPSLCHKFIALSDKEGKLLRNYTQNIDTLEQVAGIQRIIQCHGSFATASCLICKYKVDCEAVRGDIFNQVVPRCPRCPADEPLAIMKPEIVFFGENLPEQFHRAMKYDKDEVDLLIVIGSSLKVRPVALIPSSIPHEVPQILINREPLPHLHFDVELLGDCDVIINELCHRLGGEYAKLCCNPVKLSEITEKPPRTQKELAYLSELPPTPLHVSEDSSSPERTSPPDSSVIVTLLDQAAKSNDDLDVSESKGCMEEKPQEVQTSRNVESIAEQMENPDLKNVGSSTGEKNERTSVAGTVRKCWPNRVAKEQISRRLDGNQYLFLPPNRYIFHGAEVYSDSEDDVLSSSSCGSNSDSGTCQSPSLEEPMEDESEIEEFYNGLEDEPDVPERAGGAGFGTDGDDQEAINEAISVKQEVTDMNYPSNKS
Test: mass spectrometry based SIRT1 deacetylation assay (activation)
Format: biochemical
Conditions: 0.5 μM peptide substrate, 120 μM βNAD+, 10 nM SIRT1, 25 min at 25° C.; for EC1.5 (concentration of test compound that results in 150% activation of SIRT1): NA = not active in the assay; for Emax: read-out: % FOLD ACT. (percent maximum fold activation of SIRT1)
Description: A mass spectrometry based assay was used to identify modulators of SIRT1 activity. The mass spectrometry based assay utilizes a peptide having 20 amino acid residues as follows: Ac-EE-K(biotin)-GQSTSSHSK(Ac)NleSTEG-K(5TMR)-EE-NH2 (SEQ ID NO: 1) wherein K(Ac) is an acetylated lysine residue and Nle is a norleucine. The peptide is labeled with the fluorophore 5TMR (excitation 540 nm/emission 580 nm) at the C-terminus. The sequence of the peptide substrate is based on p53 with several modifications. In addition, the methionine residue naturally present in the sequence was replaced with the norleucine because the methionine may be susceptible to oxidation during synthesis and purification.
Test compounds may be added to the reaction as described above. […] After the 25 minute incubation with SIRT1, 10 μL of 10% formic acid is added to stop the reaction. Reactions are sealed and frozen for later mass spec analysis. Determination of the mass of the substrate peptide allows for precise determination of the degree of acetylation (i.e. starting material) as compared to deacetylated peptide (product).
A control for inhibition of sirtuin activity is conducted by adding 1 μL of 500 mM nicotinamide as a negative control at the start of the reaction (e.g., permits determination of maximum sirtuin inhibition). A control for activation of sirtuin activity is conducted using 10 nM of sirtuin protein, with 1 μL of DMSO in place of compound, to determine the amount of deacetylation of the substrate at a given timepoint within the linear range of the assay. This timepoint is the same as that used for test compounds and, within the linear range, the endpoint represents a change in velocity.
For the above assay, SIRT1 protein was expressed and purified as follows. […] The protein was expressed by induction with 1 mM IPTG as an N-terminal His-tag fusion protein at 18° C. overnight and harvested at 30,000×g. Cells were lysed with lysozyme in lysis buffer (50 mM Tris-HCl, 2 mM Tris[2-carboxyethyl]phosphine (TCEP), 10 μM ZnCl2, 200 mM NaCl) and further treated with sonication for 10 min for complete lysis. The protein was purified over a Ni-NTA column (Amersham) and fractions containing pure protein were pooled, concentrated and run over a sizing column (Sephadex S200 26/60 global). The peak containing soluble protein was collected and run on an Ion-exchange column (MonoQ). Gradient elution (200 mM-500 mM NaCl) yielded pure protein. This protein was concentrated and dialyzed against dialysis buffer (20 mM Tris-HCl, 2 mM TCEP) overnight. The protein was aliquoted and frozen at −80° C. until further use.
Sirtuin modulating compounds that activated SIRT1 were identified using the assay described above and are shown below in Table 3. The EC1.5 values represent the concentration of test compounds that result in 150% activation of SIRT1. NT means that the compound was not tested using the indicated assay. NA means that the compound was not active in the indicated assay.

Compound | EC1.5 (concentration of test compound that results in 150% activation of SIRT1) [NM] | Emax [%]
Cc1nc(-c2cccc(C(=O)Nc3ccccc3-c3nc4cc(CN5CCOCC5)cnc4s3)c2)cs1 [Compound 39] | 400 | 241
Cc1nc(-c2cccc(C(=O)Nc3ccccc3-c3nc4cc(CN5CCNCC5)cnc4s3)c2)cs1 [Compound 46] | 503 | 446
O=C(Nc1ccccc1-c1nc2cc(CN3CCOCC3)cnc2s1)c1cccc(-c2ccccc2F)c1 [Compound 48] | 395 | 222
O=C(Nc1ccccc1-c1nc2cc(CN3CCOCC3)cnc2s1)c1cccc(-c2cccc(F)c2)c1 [Compound 49] | 319 | 192
O=C(Nc1ccccc1-c1nc2cc(CN3CCOCC3)cnc2s1)c1cncc(-c2ccccc2F)c1 [Compound 50] | 533 | 207
O=C(Nc1ccccc1-c1nc2cc(CN3CCOCC3)cnc2s1)c1cncc(-c2cccc(F)c2)c1 [Compound 51] | 1640 | 172
O=C(Nc1ccccc1-c1nc2cc(CN3CCOCC3)cnc2s1)c1cccc(-c2ccccc2F)n1 [Compound 52] | 357 | 411
O=C(Nc1ccccc1-c1nc2cc(CN3CCOCC3)cnc2s1)c1cccc(-c2cccc(F)c2)n1 [Compound 53] | 66 | 837
O=C(Nc1ccccc1-c1nc2cc(CN3CC[C@@H](F)C3)cnc2s1)c1cccc(-c2cccc(F)c2)n1 [Compound 54] | 110 | 538
O=C(Nc1ccccc1-c1nc2cc(CN3CCOCC3)cnc2s1)c1cccc(-c2ccccc2)n1 [Compound 55] | 74 | > 500

More lines, now with the values ahead:

EC1.5 (concentration of test compound that results in 150% activation of SIRT1) [NM] | Emax [%] | Compound
548 | 292 | O=C(Nc1ccccc1-c1nc2cc(CN3CCOCC3)cnc2s1)c1cccc(-c2ncccn2)c1 [Compound 38]
182 | 397 | O=C(Nc1ccccc1-c1nc2cc(CN3CCOCC3)cnc2s1)c1cccc(-n2cccn2)c1 [Compound 40]
652 | 275 | COCCN1CCN(Cc2cnc3sc(-c4ccccc4NC(=O)c4cccc(-c5csc(C)n5)c4)nc3c2)CC1 [Compound 41]
656 | 212 | COCCN1CCN(Cc2cnc3sc(-c4ccccc4NC(=O)c4cccc(-c5ncccn5)c4)nc3c2)CC1 [Compound 42]
215 | 236 | O=C(Nc1ccccc1-c1nc2cc(CN3CC[C@@H](F)C3)cnc2s1)c1cccc(-n2cccn2)c1 [Compound 43]
397 | 603 | O=C(Nc1ccccc1-c1nc2cc(CN3CCNCC3)cnc2s1)c1cccc(-n2cccn2)c1 [Compound 44]
144 | 569 | COCCN1CCN(Cc2cnc3sc(-c4ccccc4NC(=O)c4cccc(-n5cccn5)c4)nc3c2)CC1 [Compound 45]
82 | – | COCCN1CCN(Cc2cnc3sc(-c4ccccc4NC(=O)c4cccc(-c5ccccc5)n4)nc3c2)CC1 [Compound 47]
458 | 389 | COCCN1CCN(Cc2cnc3sc(-c4ccccc4NC(=O)c4ccnc(-c5ccccc5)c4)nc3c2)CC1 [Compound 56]
41 | > 500 | COCCN1CCN(Cc2cnc3sc(-c4ccccc4NC(=O)c4cccc(-c5cccc(F)c5)n4)nc3c2)CC1 [Compound 57]

Reference: patent publication US8268862B2, “Sirtuin modulating compounds” (Sirtris Pharmaceuticals, Inc., priority 2007, dated 2012)
